Assay results: patent US20240325398A1, “COMBINATION THERAPIES” (Infinity Pharmaceuticals, Inc., priority 2014, published 2024)

Legend:
OCI-Ly3 = test: Combination study, ATPLite 72 h, dose matrix (Synergy Score, CI50); settings: combination with Compound 1; OCI-Ly3; 72 h
Description: (§1) Cells are thawed from a liquid nitrogen preserved state. Once cells have been expanded and divide at their expected doubling times, screening begins. Cells are seeded in growth media in either black 1536-well or 384-well tissue culture treated plates. Cells are then equilibrated in assay plates via centrifugation and placed in incubators attached to the Dosing Modules at 37° C. for 24 hours before treatment. […] These Tzero (To) plates are read using ultra-sensitive luminescence on Envision plate readers (Perkin Elmer). Treated assay plates are incubated with compound for 72 hours. After 72 hours, plates are developed for endpoint analysis using ATPLite. All data points are collected via automated processes, quality controlled and analyzed using Zalicus software.
(§2) where T is treated cell count and V is untreated (vehicle) cell count (at 72 hours). I ranges from 0% (when T=V) to 100% (when T=0). […] The measure of effect in the experiment can be the inhibition of cellular response relative to the untreated level (vehicle alone). […] The inhibition ranges from 0% at the untreated level to 100% when T=0. Inhibition levels are negative for agents that actually increase levels. Other effect measures, such as an activity ratio r=T/V may be more appropriate for some assays. When activity ratios (e.g, fold increase over stimulated control) are being used, the effect can be measured using an induction 1=ln(T/V). With this definition, all effect expressions are the same as for inhibition.
(§3) Growth Inhibition (GI) is used as a measure of cell viability. […] A GI reading of 100% represents complete growth inhibition—T72 compound-treated and T0 vehicle signals are matched. […] A GI reading of 200% represents complete death of all cells in the culture well. Compounds reaching an activity plateau of GI 200% are considered cytotoxic. GI is calculated by applying the following test and equation:
(§4) Combination analysis data were collected in a 6×6 dose matrix. Synergy is calculated by comparing a combination's response to those of its single compound, against the drug-with-itself dose-additive reference model. Deviations from dose additivity may be assessed visually on an isobologram or numerically with a Combination Index (CI). […] Additive effect is CI=1.0. […] Antagonistic effect is CI>1.0.
(§5) To measure combination effects in excess of Loewe additivity, a scalar measure to characterize the strength of synergistic interaction termed the Synergy Score is devised. The Synergy Score is calculated as:
(§6) The fractional inhibition for each component agent and combination point in the matrix is calculated relative to the median of all vehicle-treated control wells. The Synergy Score equation integrates the experimentally-observed activity volume at each point in the matrix in excess of a model surface numerically derived from the activity of the component agents using the Loewe model for additivity. Additional terms in the Synergy Score equation (above) are used to normalize for various dilution factors used for individual agents and to allow for comparison of synergy scores across an entire experiment. The inclusion of positive inhibition gating or an Idata multiplier removes noise near the zero effect level, and biases results for synergistic interactions at that occur at high activity levels.
(§7) Loewe Volume (Loewe Vol) is used to assess the overall magnitude of the combination interaction in excess of the Loewe additivity model. Loewe Volume is particularly useful when distinguishing synergistic increases in a phenotypic activity (positive Loewe Volume) versus synergistic antagonisms (negative Loewe Volume). […] This model defines additivity as a non-synergistic combination interaction where the combination dose matrix surface should be indistinguishable from either drug crossed with itself. The calculation for Loewe additivity is:

Farage = test: as above; settings: combination with Compound 1; Farage; 72 h
KARPAS-422 = test: as above; settings: combination with Compound 1, 72 h
NCI-H929 = test: as above; settings: combination with Compound 1
KARPAS-299 = test: as above; settings: combination with Compound 1
Description: as §1, §2, §3, §4, §5, §6
(§8) Loewe Volume (Loewe Vol) is used to assess the overall magnitude of the combination interaction in excess of the Loewe additivity model. Loewe Volume is particularly useful when distinguishing synergistic increases in a phenotypic activity (positive Loewe Volume) versus synergistic antagonisms (negative Loewe Volume). […] This model defines additivity as a non-synergistic combination interaction where the combination dose matrix surface should be indistinguishable from either drug crossed with itself.

SU-DHL-4-epst = test: as above; settings: combination with Compound 1, 72 h
Mino = test: as above; settings: combination with Compound 1
OMP-2 = test: as above; settings: combination with Compound 1; OPM-2
Description: as §1, §2, §3, §4, §5, §6, §8

[1] = as above; settings: combination with Compound 1; OPM-2
Description: as §1, §2, §3, §4, §5, §6, §8

OCI-Ly7 = test: as above; settings: combination with Compound 1, 72 h
TMD8 = test: as above; settings: combination with Compound 1; TMD8; 72 h
RL = test: as above; settings: combination with Compound 1, 72 h
SU-DHL-10-epst = test: as above; settings: combination with Compound 1, 72 h
Jeko-1 = test: as above; settings: combination with Compound 1
RPMI-8226 = test: as above; settings: combination with Compound 1
DOHH-2 = test: as above; settings: combination with Compound 1, 72 h
Description: as §1
The measure of effect in the experiment can be the inhibition of cellular response relative to the untreated level (vehicle alone). […] The inhibition ranges from 0% at the untreated level to 100% when T=0. Inhibition levels are negative for agents that actually increase levels.
as §3, §4, §5, §6, §7

WSU-NHL = test: as above; settings: combination with Compound 1, 72 h
HBL-1 = test: as above; settings: combination with Compound 1, 72 h
Description: as §1, §2, §3, §4, §5, §6, §7

GRANTA-519 = test: as above; settings: combination with Compound 1
U-2932 = test: as above; settings: combination with Compound 1, 72 h
HH = test: as above; assay type: cell-based; settings: combination with Compound 1
Description: The method is described as follows.
Additive effect is CI=1.0. […] Antagonistic effect is CI>1.0.
The Synergy Score is calculated as: […]

CN1CCc2c(c3ccccc3n2Cc2ccc(C(=O)NO)cc2)C1.Cl [Tubastatin A hydrochloride]
S (S=0.01 to <0.5): CI50 growth inhibition (Farage) | CI50 inhibition (SU-DHL-4-epst) | CI50 growth inhibition (OCI-Ly7) | CI50 growth inhibition (GRANTA-519) | CI50 growth inhibition (HH)
U (U=0.7 to <1): CI50 growth inhibition (OCI-Ly3) | CI50 growth inhibition (NCI-H929) | CI50 growth inhibition (Mino) | CI50 inhibition (Mino) | CI50 inhibition (OCI-Ly7) | CI50 growth inhibition (TMD8) | CI50 inhibition (TMD8) | CI50 growth inhibition (RPMI-8226) | CI50 inhibition (RPMI-8226) | CI50 growth inhibition (HBL-1) | CI50 growth inhibition (U-2932)
A2 (A2=1 to <3): Synergy Score growth inhibition (OCI-Ly3) | Synergy Score inhibition (Farage) | Synergy Score inhibition (NCI-H929) | Synergy Score inhibition (SU-DHL-4-epst) | Synergy Score growth inhibition (Mino) | Synergy Score inhibition (OCI-Ly7) | Synergy Score inhibition (TMD8) | Synergy Score growth inhibition (RL) | Synergy Score inhibition (RL) | Synergy Score inhibition (SU-DHL-10-epst) | Synergy Score growth inhibition (RPMI-8226) | Synergy Score inhibition (DOHH-2) | Synergy Score inhibition (WSU-NHL) | Synergy Score growth inhibition (HBL-1) | Synergy Score growth inhibition (GRANTA-519) | Synergy Score inhibition (HH)
A1 (A1=0.0001 to <1): Synergy Score inhibition (OCI-Ly3) | Synergy Score growth inhibition (KARPAS-422) | Synergy Score inhibition (KARPAS-422) | Synergy Score growth inhibition (KARPAS-299) | Synergy Score inhibition (KARPAS-299) | Synergy Score inhibition (Mino) | Synergy Score growth inhibition (OMP-2) | Synergy Score inhibition (OMP-2) | Synergy Score growth inhibition (Jeko-1) | Synergy Score inhibition (Jeko-1) | Synergy Score inhibition (RPMI-8226) | Synergy Score inhibition (HBL-1) | Synergy Score inhibition (GRANTA-519) | Synergy Score growth inhibition (U-2932) | Synergy Score inhibition (U-2932)
W (W=≥1): CI50 inhibition (OCI-Ly3) | CI50 growth inhibition [1] | CI50 growth inhibition (RL) | CI50 inhibition (RL) | CI50 growth inhibition (Jeko-1) | CI50 inhibition (Jeko-1) | CI50 inhibition (HBL-1) | CI50 inhibition (GRANTA-519)
T (T=0.5 to <0.7): CI50 inhibition (Farage) | CI50 inhibition (NCI-H929) | CI50 growth inhibition (SU-DHL-4-epst) | CI50 growth inhibition (SU-DHL-10-epst) | CI50 inhibition (SU-DHL-10-epst) | CI50 growth inhibition (DOHH-2) | CI50 inhibition (DOHH-2) | CI50 growth inhibition (WSU-NHL) | CI50 inhibition (WSU-NHL) | CI50 inhibition (HH)
A3 (A3=>3): Synergy Score growth inhibition (Farage) | Synergy Score growth inhibition (NCI-H929) | Synergy Score growth inhibition (SU-DHL-4-epst) | Synergy Score growth inhibition (OCI-Ly7) | Synergy Score growth inhibition (TMD8) | Synergy Score growth inhibition (SU-DHL-10-epst) | Synergy Score growth inhibition (DOHH-2) | Synergy Score growth inhibition (WSU-NHL) | Synergy Score growth inhibition (HH)

CC(C)C[C@H](NC(=O)[C@H](Cc1ccccc1)NC(=O)c1cnccn1)B(O)O [bortezomib, [(1R)-3-methyl-1-({(2S)-3-phenyl-2-[(pyrazin-2-ylcarbonyl)amino]propanoyl}amino)butyl]boronic acid]
U (U=0.7 to <1): CI50 growth inhibition (OCI-Ly3) | CI50 growth inhibition (Farage) | CI50 inhibition (Farage) | CI50 growth inhibition (NCI-H929) | CI50 growth inhibition (KARPAS-299) | CI50 inhibition (KARPAS-299) | CI50 growth inhibition (SU-DHL-4-epst) | CI50 growth inhibition (Mino) | CI50 inhibition (Mino) | CI50 growth inhibition (OCI-Ly7) | CI50 inhibition (OCI-Ly7) | CI50 growth inhibition (TMD8) | CI50 inhibition (TMD8) | CI50 growth inhibition (RL) | CI50 growth inhibition (SU-DHL-10-epst) | CI50 inhibition (SU-DHL-10-epst) | CI50 growth inhibition (Jeko-1) | CI50 inhibition (Jeko-1) | CI50 growth inhibition (RPMI-8226) | CI50 inhibition (RPMI-8226) | CI50 growth inhibition (DOHH-2) | CI50 inhibition (DOHH-2) | CI50 growth inhibition (WSU-NHL) | CI50 inhibition (WSU-NHL) | CI50 growth inhibition (HBL-1) | CI50 inhibition (HBL-1) | CI50 inhibition (GRANTA-519) | CI50 growth inhibition (U-2932) | CI50 growth inhibition (HH) | CI50 inhibition (HH)
T (T=0.5 to <0.7): CI50 inhibition (SU-DHL-4-epst) | CI50 growth inhibition (GRANTA-519)
W (W=≥1): CI50 inhibition (OCI-Ly3) | CI50 growth inhibition (KARPAS-422) | CI50 inhibition (KARPAS-422) | CI50 inhibition (NCI-H929) | CI50 inhibition (OMP-2) | CI50 growth inhibition [1] | CI50 inhibition (RL) | CI50 inhibition (U-2932)
